Measured values from patent US6927234B2, “Xanthone derivatives, method of production thereof, and pharmaceutical composition containing the same” (Kuboyama Bio Ken Inc., priority 2003, dated 2005).
Like-named read-outs stand apart in the source and are kept apart here. Marks after values point to notes of the source that are not given here.

Key:
[1] = tested on: Sarcoma 180; assay: Sarcoma 180 assay, single intraperitoneal dose (Example 7); assay type: in vivo, Swiss-Webster mice
Source text: [table] [table] The tumor stock was a Sarcoma 180 which was started in the laboratory from an American Type Culture Collection. This stock culture has been passed at weekly intervals as an ascites in non-treated Swiss-Webster mice. The current studies were all carried out with Swiss-Webster mice obtained from Animal Technologics Ltd., Kent, Wash. To prepare the inoculum, the ascites fluid from a mouse with a 7-10 day ascites is aspirated using a sterile technique. […] This was the tumor suspension that was then injected into the mice. The final dilution was plated on trypticase soy agar to determine if it was free of contamination. One tenth (0.1 ml) of the above suspension was inoculated into the left hind leg muscle (hamstring muscle mass) of each mouse. The inoculated mice were placed into one large cage and then randomly segregated into groups of five mice. The mice were housed in shoe box cages on wood shavings with free access to water and laboratory chow. The mice were weighed on the day of inoculation, on day 7, day 10, and at time of sacrifice. Treatment of the mice was initiated the day after transplant. At the end of the observation period, the mice were sacrificed by ether anesthesia. The skin over the left hind leg was removed to expose the tumor and the leg and tumor were removed at the hip joint. Any residual skin was removed and the legs with tumors were weighed individually. Ten normal legs (right legs) were prepared in a similar manner and weighed. The mean value of the normal leg was subtracted from the weight of the leg with the tumor to give an estimate of the actual tumor weight: […]

[2] = tested on: adjuvant-induced arthritis; assay type: in vivo, Sprague-Dawley rats; details: gavage once per day for 7 days; for Rat paw wt.: five rats per group
Description: Adjuvant-induced arthritis responds to both steroids and non-steroids. The degree of inflammation is assessed by measuring differences in foot weight and/or the foot volume.
Rats weighing between 150-200 g were purchased from ATL, in Kent Wash. They were male Sprague-Dawley rats. The animals were kept individually in stainless steel cages with free access to water and feed (Harlan Teklan Rodent Diet). The light cycle was maintained at 12 hours light and 12 hours dark. The temperature was maintained at 22° C.±3° C. with a relative humidity of 40 to 70%.
[…] The test compound and hydrocortisone were given by gavage.
The test materials were delivered orally (by gavage) once per day for 7 days.
Male Sprague-Dawley rats (150-200 g) were sensitized by injecting Fruend's complete adjuvant (0.5% suspension of killed mycobacterium tuberculosis (H37RA, Difco, in mineral oil)). A 0.1 ml aliquot was administered intradermally at a plantar site on the right hind leg of each rat.
The test materials were given orally (by gavage) to each of 5 rats per treatment group once per day for 7 days. Administration of the test materials was initiated on the day of sensitization.
The left hind paw was measured just before sensitization an again on Day 7. The plantar edema inhibitory rate and the body weight gain were determined by comparison with the non-sensitized rat groups.
The paw weights for each rat group were averaged. Anti-inflammatory activity was determined by comparing paw weights calculated as follows: [formula]

[3] = tested on: Sarcoma 180; assay: Sarcoma 180 assay, oral gavage for five days, sacrifice on Day 10 (Example 4); assay type: in vivo, Swiss-Webster mice; details: for % Tumor Inhibition: sacrificed Day 10, female mice
Description: (§1) The compound obtained in Example 1 was dissolved in ethyl alcohol at 10 mg/ml. Dilutions of this stock solution were made to 100, 10 and 1 mcg per kilo body weight of the mice. The Sarcoma 180 assay was carried out as described below.
The tumor stock was a Sarcoma 180 which was started in the laboratory from an American Type Culture Collection. This stock culture has been passed at weekly intervals as an ascites in non-treated Swiss-Webster mice.
(§2) The current studies were all carried out with Swiss-Webster mice obtained from Animal Technologics Ltd., Kent, Wash. To prepare the inoculum, the ascites fluid from a mouse with a 7-10 day ascites is aspirated using a sterile technique. Once a cell count is established, the tumor cells are diluted with normal saline or phosphate buffered saline to obtain a final concentration of 1 to 2×10^6 cells per mm^3. This is the tumor suspension that is then injected into the mice. The final dilution is plated on trypticase soy agar to determine if it is free of contamination.
(§3) One tenth (0.1 ml) of the above suspension is inoculated into the left hind leg muscle (hamstring muscle mass) of each mouse. The inoculated mice are placed into one large cage and then randomly segregated into groups of five mice. The mice are housed in shoe box cages on wood shavings with free access to water and laboratory chow. The mice are weighed on the day of inoculation, on day 7, day 10, and at time of sacrifice.
Treatment of the mice was initiated the day after transplant and then continued for five days.
(§4) At the end of the observation period, 10 days, the mice are sacrificed either by cervical dislocation or ether anesthesia. The skin over the left hind leg is removed to expose the tumor and the leg and tumor are removed at the hip joint. Any residual skin is removed and the legs with tumors are weighed individually. Ten normal legs (right legs) are prepared in a similar manner and weighed. The mean value of the normal leg is subtracted from the weight of the leg with the tumor to give an estimate of the actual tumor weight.

[4] = tested on: Sarcoma 180; assay: Sarcoma 180 assay, oral dosing, 12-day treatment period (Example 5); assay type: in vivo, Swiss-Webster mice; details: 12 days treatment; for % Tumor Inhibition / Body wt. G (avg.): oral gavage
Description: as §1
The tumor stock was a Sarcoma 180, which was started in the laboratory from an American Type Culture Collection. This stock culture has been passed at weekly intervals as an ascites in non-treated Swiss-Webster mice.
as §2, with “7-12” for “7-10”, “sterile technique. The tumor cells are checked for viability using the trypan-blue staining” for “sterile”
as §3, with “12,” for “10,”
Treatment of the mice was initiated the day after transplant. The treatment period was 12 days.
as §4, with “period,” for “period, 10 days,”, “sacrificed” for “sacrificed either”, “by” for “by cervical dislocation or”, “weight. [formula]” for “weight.”

[5] = 1 mg/kg, single dose intraperitoneally
[6] = 10 mg/kg, single dose intraperitoneally
[7] = 100 mg/kg, single dose intraperitoneally

## O=c1c2ccccc2oc2ccccc12 [Compound of Example 3, Xanthone]
[1]; [5]
  % Inhibition: 80%
  Net Tumor wt.: 0.3 g
[1]; [6]
  % Inhibition: 100%
  Net Tumor wt.: 0 g
[1]; [7]
  % Inhibition: 100%
  Net Tumor wt.: 0 g
[1]; 10 and 100 mg/kg body weight, single dose intraperitoneally
  evidence of tumor: no evidence of tumor
[1]; Day 1, 1 mg/kg single ip
  Body weight: 24.2 g
[1]; Day 1, 10 mg/kg single ip
  Body weight: 23.8 g
[1]; Day 1, 100 mg/kg single ip
  Body weight: 23.4 g
[1]; Day 7, 1 mg/kg single ip
  Body weight: 26 g
[1]; Day 7, 10 mg/kg single ip
  Body weight: 26.1 g
[1]; Day 7, 100 mg/kg single ip
  Body weight: 26.2 g
[1]; Day 10, 1 mg/kg single ip
  Body weight: 26.2 g
[1]; Day 10, 10 mg/kg single ip
  Body weight: 26.4 g
[1]; Day 10, 100 mg/kg single ip
  Body weight: 26.5 g

## C[C@]12CCC(=O)C=C1CC[C@@H]1[C@@H]2[C@@H](O)C[C@@]2(C)[C@H]1CC[C@]2(O)C(=O)CO [hydrocortisone]
[2]; 10 mg/kg body wt.
  % Inhibition (rat paw inflammation): 42%
  Rat paw wt.: 0.98 g

## O=C(O)Cc1c2cc[nH]c2cc2c(=O)c3ccccc3oc12 [Compound of Example 1]
[3]; 1 mcg/kg
  % Tumor Inhibition: 43%
[3]; 10 mcg/kg
  % Tumor Inhibition: 100%
[3]; 100 mcg/kg
  % Tumor Inhibition: 100%
[3]; any dose (1, 10, 100 mcg/kg)
  toxicity as indicated by the body weights: No toxicity
[4]; 1 and 10 mcg/kg, oral
  toxicity from final body weights: not toxic
  visible tumor: no visible tumor
[4]; 1 mcg/kg
  % Tumor Inhibition: 98.5* %
  Body wt. G (avg.): 29.2 G
[4]; 10 mcg/kg
  % Tumor Inhibition: 100* %
  Body wt. G (avg.): 28.7 G
[2]; 1 mcg/kg body wt.
  % Inhibition (rat paw inflammation): 95.2%
  Rat paw wt.: 0.324 g
